Results as given in US10613104B2, “Assay to determine anticoagulants in blood or blood plasma” (ZAFENA AB, priority 2014, dated 2020).

Columns and labels:
[1] = tested on: prothrombin time (PT) of control plasma NKP; test: 20 μL and 5 μL PT methods with reagent P161 at various added CaCl2, NKP + 500 μg/L apixaban; type: biochemical
Procedure: With each reagent three samples were analyzed by the two PT methods of the anticoagulant assay, the 20 μL-method and the 5 μL-method. Two of the samples were reference samples, the control plasmas NKP and ZAP, with established INR values of 1.00 and 2.50, respectively.

[2] = tested on: prothrombin time (PT) of normal citrated blood; test: Three wet-chemistry Owren PT methods (Simple Simon PT) on normal citrated blood with added apixaban; type: biochemical
Procedure: Experimental work was performed with the commercially available ambient room temperature coagulation instrument, Simple Simon P T Zafena A B, Linköping, Sweden, with functions described in EP 1 636 595 B2. One instrument or reader was used for each PT-method. Alternatively, the same instrument could be used for all PT-methods.
The three instruments were used together standing next to one another on a laboratory bench in thermal equilibrium with the ambient room temperature of the laboratory.
The PT-reagent was the one delivered together with lot N223M of the Simple Simon PT product, a reagent of Owren-type that thus contains effective amounts of thromboplastin, fibrinogen and FV (the thromboplastin of rabbit brain origin and the fibrinogen and the FV of bovine blood plasma origin). Other Owren type reagents could also be used.
The reagent was in portions of 200 μL to which sample, citrated blood or citrated blood plasma, was added and mixed. The addition was by an end-to-end plastic capillary mounted at one end of a tubular body with a displacement mechanism in the other end, this to allow convenient mixing of sample and reagent. Such Mixxocaps with 10 μL capillaries are supplied with the Simple Simon PT product. To perform the experiments described, some Mixxocaps were fitted with 20 μL capillaries, or 5 μL capillaries instead of the 10 μL capillaries with which they were supplied by the manufacturer.
These blood samples and a blood sample with an INR 2.3 were analyzed by Simple Simon PT using sample volumes of 20 μL, 10 μL and 5 μL in 200 μL reagents. […]

[3] = apixaban 63 μg/L in normal citrated blood
[4] = apixaban 125 μg/L in normal citrated blood
[5] = apixaban 250 μg/L in normal citrated blood
[6] = apixaban 500 μg/L in normal citrated blood
[7] = apixaban 714 μg/L in normal citrated blood
[8] = apixaban 1000 μg/L in normal citrated blood

## COc1ccc(-n2nc(C(N)=O)c3c2C(=O)N(c2ccc(N4CCCCC4=O)cc2)CC3)cc1 [apixaban]
[1]; reagent P161, added Ca2+ 4 mM
  5 uL-method NKP + 500 INR5c: 1.18
  20 uL-method NKP + 500 INR20c: 1.83
[1]; reagent P161, added Ca2+ 8 mM
  20 uL-method NKP + 500 INR20c: 2.15
[1]; reagent P161, added Ca2+ 16 mM
  20 uL-method NKP + 500 INR20c: 3.15
[1]; reagent P161, added Ca2+ 24 mM
  20 uL-method NKP + 500 INR20c: 3.30
[1]; reagent P161, added Ca2+ 32 mM
  5 uL-method NKP + 500 INR5c: 1.49
  20 uL-method NKP + 500 INR20c: 3.38
[2]; [3]
  INR 10 μL sample: 1.19
  INR 20 μL sample: 1.41
  INRc 5 μL sample: 1.06
  INRc 10 μL sample: 1.12
  INRc 20 μL sample: 1.21
  INRo: 0.96
  ΔINRc 10 μL − 5 μL: 0.06
  ΔINRc 20 μL − 5 μL: 0.15
[2]; [4]
  INR 10 μL sample: 1.32
  INR 20 μL sample: 1.75
  INRc 5 μL sample: 1.16
  INRc 10 μL sample: 1.26
  INRc 20 μL sample: 1.49
  INRo: 1.02
  ΔINRc 10 μL − 5 μL: 0.10
  ΔINRc 20 μL − 5 μL: 0.32
[2]; [5]
  INR 5 μL sample: 1.32
  INR 10 μL sample: 1.64
  INR 20 μL sample: 2.61
  INRc 5 μL sample: 1.39
  INRc 10 μL sample: 1.60
  INRc 20 μL sample: 2.18
  INRo: 1.07
  ΔINRc 10 μL − 5 μL: 0.21
  ΔINRc 20 μL − 5 μL: 0.79
[2]; [6]
  INR 5 μL sample: 1.66
  INR 10 μL sample: 2.27
  INR 20 μL sample: 4.58
  INRc 5 μL sample: 1.81
  INRc 10 μL sample: 2.29
  INRc 20 μL sample: 3.73
  INRo: 1.09
  ΔINRc 10 μL − 5 μL: 0.48
  ΔINRc 20 μL − 5 μL: 1.92
[2]; [7]
  INR 5 μL sample: 1.87
  INR 10 μL sample: 2.78
  INR 20 μL sample: 6.06
  INRc 5 μL sample: 2.08
  INRc 10 μL sample: 2.86
  INRc 20 μL sample: 4.88
  INRo: 0.91
  ΔINRc 10 μL − 5 μL: 0.78
  ΔINRc 20 μL − 5 μL: 2.80
[2]; [8]
  INR 10 μL sample: 3.50
  INR 20 μL sample: 8.76
  INRc 5 μL sample: 2.51
  INRc 10 μL sample: 3.69
  INRc 20 μL sample: 6.94
  INRo: 0.74
  ΔINRc 10 μL − 5 μL: 1.16
  ΔINRc 20 μL − 5 μL: 4.43
